# In patent US9370515B2, “Mixed lineage kinase inhibitors and method of treatments” (CALIFIA BIO, INC., priority 2013, dated 2016):
# Target: MLK-3 (Homo sapiens, UniProt Q16584)
# Test: Biochemical assay for the inhibition of kinase activity for MLK-3 (33P-ATP, HOTSPOT filter binding)
# Details: activated MLK-3 20 nM, ATP 50 μM, myelin basic protein 20 μM, 20 minutes room temperature
# Description: Biochemical Assay for the Inhibition of Kinase Activity for MLK-3: Myelin basic protein (20 μM final concentration) is dissolved in 20 mM Hepes (pH 7.5) containing […], […], 0.02% Brij35, 0.02 mg/ml BSA, 0.1 μM Na3VO4, 2 mM DTT, and 1% DMSO. Activated MLK-3 is added and mixed (20 nM final concentration), and inhibitors are added in DMSO. ^33P-ATP (specific activity 500 μCi/μL) is delivered into the reaction mixture to initiate the reaction (ATP concentration is 50 μM) and the mixture is incubated at room temperature for 20 minutes. % Activity is determined using a proprietary HOTSPOT™ microfluidic filter binding technology. See, Expert Opin. Drug Discov. 2008 June; 3(6): 607-621.
# MLK-3, sequence (Q16584 whole entry): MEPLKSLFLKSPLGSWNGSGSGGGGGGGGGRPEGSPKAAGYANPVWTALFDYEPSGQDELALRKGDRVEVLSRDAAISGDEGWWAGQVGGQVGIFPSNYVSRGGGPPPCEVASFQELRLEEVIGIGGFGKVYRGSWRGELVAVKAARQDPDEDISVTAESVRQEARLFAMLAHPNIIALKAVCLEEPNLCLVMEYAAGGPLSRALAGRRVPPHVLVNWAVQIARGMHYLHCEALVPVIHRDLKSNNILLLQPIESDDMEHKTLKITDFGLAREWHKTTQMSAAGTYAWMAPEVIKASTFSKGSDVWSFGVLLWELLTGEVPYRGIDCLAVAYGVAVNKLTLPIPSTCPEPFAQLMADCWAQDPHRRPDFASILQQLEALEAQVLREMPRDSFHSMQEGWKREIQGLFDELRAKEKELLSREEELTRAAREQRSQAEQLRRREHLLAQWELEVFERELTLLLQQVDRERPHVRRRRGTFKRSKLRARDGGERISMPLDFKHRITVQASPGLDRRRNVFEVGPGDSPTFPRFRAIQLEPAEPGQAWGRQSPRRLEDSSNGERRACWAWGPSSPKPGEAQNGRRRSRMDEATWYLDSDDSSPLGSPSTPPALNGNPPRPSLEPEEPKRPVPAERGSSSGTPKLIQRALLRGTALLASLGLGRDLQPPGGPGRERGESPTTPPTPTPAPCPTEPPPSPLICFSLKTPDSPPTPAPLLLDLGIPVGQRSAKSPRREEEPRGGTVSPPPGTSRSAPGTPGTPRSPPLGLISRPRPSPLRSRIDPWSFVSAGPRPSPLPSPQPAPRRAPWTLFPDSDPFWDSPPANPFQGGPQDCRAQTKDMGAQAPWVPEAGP
row,Structure (SMILES),IC50 [nM]
1,"OC[C@H]1CCCN1c1ccc2ncc(-c3cc4ccccc4s3)n2n1 [Compound 126, ((R)-1-(3-(benzo[b]thiophen-2-yl)imidazo[1,2-b]pyridazin-6-yl)pyrrolidin-2-yl)methanol]",< 5000
2,"OCCCCCNc1ccc2ncc(-c3cc4ccccc4s3)n2n1 [Compound 135, 5-(3-(benzo[b]thiophen-2-yl)imidazo[1,2-b]pyridazin-6-ylamino)pentan-1-ol]",100 to 500
3,"COc1ccc2cc(-c3cnc4ccc(N[C@H]5CC[C@H](O)CC5)nn34)[nH]c2c1 [Compound 86, trans-4-(3-(6-methoxy-1H-indol-2-yl)imidazo[1,2-b]pyridazin-6-ylamino)cyclohexanol]",100 to 500
4,"COc1cc(Nc2ccc3ncc(-c4cc5ccccc5s4)n3n2)cc(OC)c1OC [Compound 14, 3-(benzo[b]thiophen-2-yl)-N-(3,4,5-trimethoxyphenyl)imidazo[1,2-b]pyridazin-6-amine]",500 to 1000
5,"COc1ccc(Nc2ccc3ncc(-c4ccc5ccccc5c4)n3n2)cc1OC [Compound 62, N-(3,4-dimethoxyphenyl)-3-(naphthalen-3-yl)imidazo[1,2-b]pyridazin-6-amine]",< 5000
6,"COc1cc(Nc2ccc3ncc(-c4cc5ccccc5s4)n3n2)ccn1 [Compound 34, 3-(benzo[b]thiophen-2-yl)-N-(2-methoxypyridin-4-yl)imidazo[1,2-b]pyridazin-6-amine]",< 5000
7,"CC(C)CNc1ccc2ncc(-c3ccc4[nH]ccc4c3)n2n1 [Compound 142, 3-(1H-indol-5-yl)-N-isobutylimidazo[1,2-b]pyridazin-6-amine]",< 5000
8,"CC(C)Oc1cccc2cc(-c3cnc4ccc(N[C@H]5CC[C@H](O)CC5)nn34)sc12 [Compound 178, trans-4-(3-(7-isopropoxybenzo[b]thiophen-2-yl)imidazo[1,2-b]pyridazin-6-ylamino)cyclohexanol]",100 to 500
9,"COC(=O)C1CCCN(c2ccc3ncc(-c4cc5ccccc5s4)n3n2)C1 (stereo not drawn) [Compound 131, methyl 1-(3-(benzo[b]thiophen-2-yl)imidazo[1,2-b]pyridazin-6-yl)piperidine-3-carboxylate]",< 5000
10,"COc1ccc(N(C)c2ccc3ncc(-c4cc5cc(OC)c(OC)cc5s4)n3n2)cc1OC [Compound 75, 3-(5,6-dimethoxybenzo[b]thiophen-2-yl)-N-(3,4-dimethoxyphenyl)-N-methylimidazo[1,2-b]pyridazin-6-amine]",100 to 500
11,"O=C(O)c1cccc(Nc2ccc3ncc(-c4ccc5ccccc5c4)n3n2)c1 [Compound 63, 3-(3-(naphthalen-3-yl)imidazo[1,2-b]pyridazin-6-ylamino)benzoic acid]",100 to 500
12,"Cc1c(-c2cnc3ccc(N[C@H]4CC[C@H](O)CC4)nn23)sc2ccc(Cl)cc12 [Compound 164, trans-4-(3-(5-chloro-3-methylbenzo[b]thiophen-2-yl)imidazo[1,2-b]pyridazin-6-ylamino)cyclohexanol]",500 to 1000
13,"CCOc1cccc2cc(-c3cnc4ccc(Nc5ccc(OC)c(OC)c5)nn34)sc12 [Compound 186, 3-(7-ethoxybenzo[b]thiophen-2-yl)-N-(3,4-dimethoxyphenyl)imidazo[1,2-b]pyridazin-6-amine]",100 to 500
14,"COc1cc2cc(-c3cnc4ccc(-c5ccc(CN6CCN(C)CC6)cc5)nn34)sc2cc1OC [Compound 73, 3-(5,6-dimethoxybenzo[b]thiophen-2-yl)-6-(4-((4-methylpiperazin-1-yl)methyl)phenyl)imidazo[1,2-b]pyridazine]",500 to 1000
15,"Cc1cccc2cc(-c3cnc4ccc(N[C@H]5CC[C@H](O)CC5)nn34)[nH]c12 [Compound 196, trans-4-(3-(7-methyl-1H-indol-2-yl)imidazo[1,2-b]pyridazin-6-ylamino)cyclohexanol]",100 to 500
16,OC[C@H]1CC[C@H](Nc2ccc3ncc(-c4cc5ccccc5s4)n3n2)CC1 [Compound 139],100 to 500
17,"COc1ccc(Nc2ccc3ncc(-c4cc5cncc(C)c5s4)n3n2)cc1OC [Compound 214, N-(3,4-dimethoxyphenyl)-3-(7-methylthieno[3,2-c]pyridin-2-yl)imidazo[1,2-b]pyridazin-6-amine]",100 to 500
18,"CN1CCN(c2cccc(Nc3ccc4ncc(-c5ccc6[nH]ccc6c5)n4n3)c2)CC1 [Compound 56, 3-(1H-indol-5-yl)-N-(3-(4-methylpiperazin-1-yl)phenyl)imidazo[1,2-b]pyridazin-6-amine]",500 to 1000
19,"COc1cc(Nc2ccc3ncc(-c4cc5cccc(OC)c5s4)n3n2)ccc1OC(F)F [Compound 183, N-(4-(difluoromethoxy)-3-methoxyphenyl)-3-(7-methoxybenzo[b]thiophen-2-yl)imidazo[1,2-b]pyridazin-6-amine]",< 5000
20,"COc1cccc2cc(-c3cnc4ccc(N[C@H]5CC[C@H](OC)CC5)nn34)[nH]c12 [Compound 199, trans-3-(7-methoxy-1H-indol-2-yl)-N-(4-methoxycyclohexyl)imidazo[1,2-b]pyridazin-6-amine]",< 5000

row,Structure (SMILES),IC50 [nM]
1,"COc1ccc2c(c1)cc(-c1cnc3ccc(N[C@H]4CC[C@H](O)CC4)nn13)n2C [Compound 194, trans-4-(3-(5-methoxy-1-methyl-1H-indol-2-yl)imidazo[1,2-b]pyridazin-6-ylamino)cyclohexanol]",< 5000
2,"CCCOc1ccc(Nc2ccc3ncc(-c4cc5cccc(OC)c5s4)n3n2)cc1OC [Compound 182, N-(3-methoxy-4-propoxyphenyl)-3-(7-methoxybenzo[b]thiophen-2-yl)imidazo[1,2-b]pyridazin-6-amine]",< 5000
3,"COc1cc(Nc2ccc3ncc(-c4cc5cccc(OC)c5s4)n3n2)ccc1OC(F)(F)F [Compound 184, N-(3-methoxy-4-(trifluoromethoxy)phenyl)-3-(7-methoxybenzo[b]thiophen-2-yl)imidazo[1,2-b]pyridazin-6-amine]",< 5000
4,"O=c1cc(Nc2ccc3ncc(-c4cc5ccccc5s4)n3n2)cc[nH]1 [Compound 41, 4-(3-(benzo[b]thiophen-2-yl)imidazo[1,2-b]pyridazin-6-ylamino)pyridin-2-ol]",500 to 1000
5,"COc1cc(Nc2ccc3ncc(-c4cc5ccccc5s4)n3n2)ccc1O [Compound 24, 4-(3-(benzo[b]thiophen-2-yl)imidazo[1,2-b]pyridazin-6-ylamino)-2-methoxyphenol]",100 to 500
6,"COc1ccc(Nc2ccc3ncc(-c4cc5cccnc5s4)n3n2)cc1OC [Compound 204, N-(3,4-dimethoxyphenyl)-3-(thieno[2,3-b]pyridin-2-yl)imidazo[1,2-b]pyridazin-6-amine]",100 to 500
7,"COc1cc2cc(-c3cnc4ccc(N[C@H]5CC[C@H](OC)CC5)nn34)sc2cc1OC [Compound 201, trans-3-(5,6-dimethoxybenzo[b]thiophen-2-yl)-N-(4-methoxycyclohexyl)imidazo[1,2-b]pyridazin-6-amine]",100 to 500
8,"OCCCCNc1ccc2ncc(-c3cc4ccccc4s3)n2n1 [Compound 110, 4-(3-(benzo[b]thiophen-2-yl)imidazo[1,2-b]pyridazin-6-ylamino)butan-1-ol]",100 to 500
9,"O=C(O)c1cccc(Nc2ccc3ncc(-c4cc5ccccc5s4)n3n2)c1 [Compound 26, 3-(3-(benzo[b]thiophen-2-yl)imidazo[1,2-b]pyridazin-6-ylamino)benzoic acid]",100 to 500
10,COc1cncc2cc(-c3cnc4ccc(N[C@H]5CC[C@H](OC)CC5)nn34)sc12 [Compound 217],100 to 500
11,"O[C@H]1CCC[C@@H](Nc2ccc3ncc(-c4cc5ccccc5s4)n3n2)C1 (relative stereo) [Compound 122, cis-3-(3-(benzo[b]thiophen-2-yl)imidazo[1,2-b]pyridazin-6-ylamino)cyclohexanol]",100 to 500
12,"COc1ccc(Nc2ccc3ncc(-c4cc5cccc(C)c5[nH]4)n3n2)cc1OC [Compound 195, N-(3,4-dimethoxyphenyl)-3-(7-methyl-1H-indol-2-yl)imidazo[1,2-b]pyridazin-6-amine]",< 5000
13,"COc1ccc(Nc2ccc3ncc(-c4cc5cccc(OC(C)C)c5s4)n3n2)cc1OC [Compound 80, 3-(7-isopropoxybenzo[b]thiophen-2-yl)-N-(3,4-dimethoxyphenyl)imidazo[1,2-b]pyridazin-6-amine]",100 to 500
14,"COc1ccc2cc(-c3cnc4ccc(Nc5ccc(OC)c(OC)c5)nn34)[nH]c2c1 [Compound 4, 3-(6-methoxy-1H-indol-2-yl)-N-(3,4-dimethoxyphenyl)imidazo[1,2-b]pyridazin-6-amine]",100 to 500
15,"O[C@H]1CC[C@H](Nc2ccc3ncc(-c4cc5cnccc5s4)n3n2)CC1 [Compound 207, trans-(3-(thieno[3,2-c]pyridin-2-yl)imidazo[1,2-b]pyridazin-6-ylamino)cyclohexanol]",100 to 500
16,"OC[C@@H]1CCCN1c1ccc2ncc(-c3cc4ccccc4s3)n2n1 [Compound 127, ((S)-1-(3-(benzo[b]thiophen-2-yl)imidazo[1,2-b]pyridazin-6-yl)pyrrolidin-2-yl)methanol]",< 5000
17,"COc1ccc(Nc2ccc3ncc(-c4cc5ccccc5s4)n3n2)cc1C(=O)O [Compound 43, 5-(3-(benzo[b]thiophen-2-yl)imidazo[1,2-b]pyridazin-6-ylamino)-2-methoxybenzoic acid]",500 to 1000
18,"COc1cc2sc(-c3cnc4ccc(N[C@H]5CC[C@H](O)CC5)nn34)cc2c(OC)c1OC [Compound 176, trans-4-(3-(4,5,6-trimethoxybenzo[b]thiophen-2-yl)imidazo[1,2-b]pyridazin-6-ylamino)cyclohexanol]",100 to 500
19,CO[C@H]1CC[C@H](Nc2ccc3ncc(-c4cc5cncc(C)c5s4)n3n2)CC1 [Compound 216],100 to 500
